Source: patent publication US4547492A, “1-N-(ω-Amino-α-hydroxyalkanoyl-2',3'-dideoxykanamycin A and pharmaceutical composition containing same” (Zaidan Hojin Biseibutsu Kagaku Kenkyu Kai, priority 1983, dated 1985)
Values after ≈ are worked out from the molar mass of the structure shown. Where two headings read alike, the source gives them in different places.

Key:
[1] = tested on: Bacillus subtilis PCI 219; assay: MIC, serial dilution on nutrient agar; type: cell-based; settings: PCI219, B. subtilis PCI 219, 37° C., 18 hours
Experimental: (§1) For comparison purpose, the minimum inhibitory concentrations (MIC.) of 1-N-(L-4-amino-2-hydroxybutyryl)-kanamycin A, namely amikacin and of 2',3'-dideoxykanamycin A (abbreviated as DKA) are also shown in Table 1.
(§2) The minimum inhibitory concentrations (mcg/ml) of these kanamycin A derivatives against the various bacteria were determined according to a standard serial dilution method on a nutrient agar medium at 37° C., the estimation being made after 18 hours incubation.

Escherichia coli ML 1629 = assay: MIC, serial dilution on nutrient agar; type: cell-based
Experimental: as §1, §2

Escherichia coli ML 1630 = assay: MIC, serial dilution on nutrient agar; type: cell-based; settings: ML1630, E. coli ML 1630, 37° C., 18 hours
Experimental: as §1, §2

Escherichia coli ML R 81 = assay: MIC, serial dilution on nutrient agar; type: cell-based
Experimental: as §1, §2

Proteus rettgeri GN 311 = assay: MIC, serial dilution on nutrient agar; type: cell-based; settings: Providencia rettgeri, GN311, 37° C., 18 hours
Experimental: as §1, §2

[2] = tested on: Pseudomonas aeruginosa A3; assay: MIC, serial dilution on nutrient agar; type: cell-based; settings: P. aeruginosa A3, 37° C., 18 hours
Experimental: as §1, §2

[3] = tested on: Pseudomonas aeruginosa B-13; assay: MIC, serial dilution on nutrient agar; type: cell-based
Experimental: as §1, §2

[4] = tested on: Pseudomonas aeruginosa H9; assay: MIC, serial dilution on nutrient agar; type: cell-based
Experimental: as §1, §2

[5] = tested on: Pseudomonas aeruginosa K-Ps 102; assay: MIC, serial dilution on nutrient agar; type: cell-based
Experimental: as §1, §2

[6] = tested on: Serratia marcescens I-0111; assay: MIC, serial dilution on nutrient agar; type: cell-based
Experimental: as §1, §2

[7] = tested on: Serratia marcescens I-0115; assay: MIC, serial dilution on nutrient agar; type: cell-based
Experimental: as §1, §2

[8] = tested on: Serratia marcescens I-0139; assay: MIC, serial dilution on nutrient agar; type: cell-based; settings: I0139, S. marcescens I-0139, 37° C., 18 hours
Experimental: as §1, §2

[9] = tested on: Serratia marcescens I-0162; assay: MIC, serial dilution on nutrient agar; type: cell-based
Experimental: as §1, §2

Serratia sp. 4 = assay: MIC, serial dilution on nutrient agar; type: cell-based; settings: 37° C., 18 hours
Experimental: as §1, §2

[10] = tested on: Staphylococcus aureus 209P; assay: MIC, serial dilution on nutrient agar; type: cell-based; settings: S. aureus 209P, 37° C., 18 hours
Experimental: as §1, §2

[11] = tested on: Staphylococcus aureus Ap 01; assay: MIC, serial dilution on nutrient agar; type: cell-based
Experimental: as §1, §2

Escherichia coli J5R11-2 = assay: microbe, parasite or virus in culture; settings: J5R112, 18 h
Experimental: as §1, §2

[12] = acute toxicity by intravenous injection in mice; settings: mouse, in vivo
[13] = ML1629, E. coli ML 1629, nutrient agar, 37° C., 18 hours, read-out: MIC.
[14] = MLR81, E. coli ML R 81, nutrient agar, 37° C., 18 hours, read-out: MIC.
[15] = P. aeruginosa H9, nutrient agar, 37° C., 18 hours, read-out: MIC.
[16] = AP01, S. aureus Ap 01, nutrient agar, 37° C., 18 hours, read-out: MIC.
[17] = I0111, S. marcescens I-0111, nutrient agar, 37° C., 18 hours, read-out: MIC.
[18] = I0115, S. marcescens I-0115, nutrient agar, 37° C., 18 hours, read-out: MIC.

Compound	MIC [1] [µg/mL]	MIC (Escherichia coli ML 1629; [13]) [µg/mL]	MIC (Escherichia coli ML 1630) [µg/mL]	MIC (Escherichia coli ML R 81; [14]) [µg/mL]	MIC (Proteus rettgeri GN 311) [µg/mL]	MIC [2] [µg/mL]	MIC ([3]; B13, 18 h) [µg/mL]	MIC [4, 15] [µg/mL]	MIC ([5]; KPS102, 18 h) [µg/mL]	MIC [8] [µg/mL]	MIC ([9]; I0162, 18 h) [µg/mL]	MIC (Serratia sp. 4) [µg/mL]	MIC [10] [µg/mL]	MIC [11, 16] [µg/mL]	MIC (Escherichia coli J5R11-2) [µg/mL]	LD50 [12] [mg/kg]	MIC [6, 17] [µg/mL]	MIC [7, 18] [µg/mL]	further results
NCC[C@H](O)C(=O)N[C@@H]1C[C@H](N)[C@@H](O[C@@H]2CC[C@H](O)[C@@H](CN)O2)[C@H](O)[C@H]1O[C@H]1O[C@H](CO)[C@@H](O)[C@H](N)[C@H]1O [AHDK]	0.2 (≈ 0.361 µM)	1.56 (≈ 2.82 µM)	1.56 (≈ 2.82 µM)	1.56 (≈ 2.82 µM)	0.39 (≈ 0.704 µM)	0.78 (≈ 1.41 µM)	12.5 (≈ 22.6 µM)	3.13 (≈ 5.65 µM)	6.25 (≈ 11.3 µM)	12.5 (≈ 22.6 µM)	6.25 (≈ 11.3 µM)	1.56 (≈ 2.82 µM)	0.1 (≈ 0.181 µM)	0.39 (≈ 0.704 µM)	0.78 (≈ 1.41 µM)	326			MIC ([6]; I0111, 18 h): 6.25 µg/mL (≈ 11.3 µM); MIC ([7]; I0115, 18 h): 6.25 µg/mL (≈ 11.3 µM)
NC[C@H]1O[C@H](O[C@H]2[C@H](O)[C@@H](O[C@H]3O[C@H](CO)[C@@H](O)[C@H](N)[C@H]3O)[C@H](N)C[C@@H]2N)CC[C@@H]1O [DKA, 2',3'-dideoxykanamycin A]	0.39 (≈ 0.862 µM)	1.56 (≈ 3.45 µM)	3.13 (≈ 6.92 µM)	3.13 (≈ 6.92 µM)		1.56 (≈ 3.45 µM)	12.5 (≈ 27.6 µM)		6.25 (≈ 13.8 µM)				1.56 (≈ 3.45 µM)	3.13 (≈ 6.92 µM)	3.12 (≈ 6.89 µM)				MIC ([4]; H9, 18 h): 6.25 µg/mL (≈ 13.8 µM)
NCC[C@H](O)C(=O)N[C@@H]1C[C@H](N)[C@@H](O[C@H]2O[C@H](CN)[C@@H](O)[C@H](O)[C@H]2O)[C@H](O)[C@H]1O[C@H]1O[C@H](CO)[C@@H](O)[C@H](N)[C@H]1O [Amikacin, 1-N-(L-4-amino-2-hydroxybutyryl)-kanamycin A, reference compound]	0.39 (≈ 0.666 µM)		3.13 (≈ 5.34 µM)		0.39 (≈ 0.666 µM)	< 0.2		6.25 (≈ 10.7 µM)		100 (≈ 171 µM)		3.13 (≈ 5.34 µM)	0.78 (≈ 1.33 µM)		1.56 (≈ 2.66 µM)		25 (≈ 42.7 µM)	50 (≈ 85.4 µM)	MIC (Escherichia coli ML 1629; ML1629, 18 h): 1.56 µg/mL (≈ 2.66 µM); MIC (Escherichia coli ML R 81; MLR81, 18 h): 1.56 µg/mL (≈ 2.66 µM); MIC ([3]; B13, P. aeruginosa B-13, nutrient agar, 37° C., 18 hours, read-out: MIC.): 6.25 µg/mL (≈ 10.7 µM); MIC ([5]; KPS102, P. aeruginosa K-Ps 102, nutrient agar, 37° C., 18 hours, read-out: MIC.): 6.25 µg/mL (≈ 10.7 µM); MIC ([9]; I0162, S. marcescens I-0162, nutrient agar, 37° C., 18 hours, read-out: MIC.): 50 µg/mL (≈ 85.4 µM); MIC ([11]; AP01, 18 h): 1.56 µg/mL (≈ 2.66 µM)
NC[C@H](O)C(=O)N[C@@H]1C[C@H](N)[C@@H](O[C@@H]2CC[C@H](O)[C@@H](CN)O2)[C@H](O)[C@H]1O[C@H]1O[C@H](CO)[C@@H](O)[C@H](N)[C@H]1O [ISDK, 1-N-(L-3-amino-2-hydroxy-propionyl)-2',3'-dideoxykanamycin A]	0.39 (≈ 0.723 µM)	1.56 (≈ 2.89 µM)	3.13 (≈ 5.8 µM)	1.56 (≈ 2.89 µM)	0.39 (≈ 0.723 µM)	0.78 (≈ 1.45 µM)	12.5 (≈ 23.2 µM)	3.13 (≈ 5.8 µM)	6.25 (≈ 11.6 µM)	6.25 (≈ 11.6 µM)	6.25 (≈ 11.6 µM)	1.56 (≈ 2.89 µM)	0.2 (≈ 0.371 µM)	0.78 (≈ 1.45 µM)	0.78 (≈ 1.45 µM)	240	3.13 (≈ 5.8 µM)	3.13 (≈ 5.8 µM)	
